Laboratory results published in patent US20250282818A1, “SYRBACTIN MACROLACTAMS AND UNNATURAL ANALOGS AS PROTEASOME INHIBITORS FOR THE TREATMENT OF MULTIPLE MYELOMA AND CHEMOENZYMATIC SYNTHESIS THEREOF” (UNIVERSITY OF FLORIDA RESEARCH FOUNDATION,INCORPORATED, priority 2022, published 2025).
Entries after “also recorded” stand apart in the source; their conditions may differ.

How the values were obtained:
[1] = system: human MM (RPMI8226, U266, H929) and MCL (JeKo-1, HBL2, Mino) cell lines; test: MM and MCL cytotoxicity EC50 measurements, cell line panel; format: cell-based; settings: 3 MM and 3 MCL cell lines, 48 hours
Description: (§1) Finally, we sought to compare the new lead analog (50) against the clinical drug bortezomib. It has been shown that in addition to MM, mantle cell lymphoma (MCL) is also sensitive to proteasome inhibition. Indeed, bortezomib itself is FDA-approved for the treatment of MCL.^23 Therefore, we compared 50 and bortezomib in 3 different cell lines of both MM and MCL (FIG. 6E, FIG. 7).
(§2) Cells were seeded in a 96-well plate (20,000 cells/well) in cell culture media supplemented with indicated compounds (1,000× stock in DMSO) or DMSO and cultured for 48 hours. Toxicity was determined using the WST-1 assay (Roche) according to the protocol of the manufacturer. (n=3)

[2] = system: upregulated protein expression; test: Global proteomics experiments; format: cell-based, human
proteasome subunit β5 = biological target: T1, proteasome subunit β5 (Homo sapiens, UniProt P28074); test: Proteasome inhibition IC50 measurements in RPMI 8226 cells, substrate Suc-LLVY-AMC (β5); format: cell-based
T1 construct: Cells were then collected and lysed; endogenous in cells; host or cells: RPMI 8226
Source text: Our preliminary series of analogs (FIG. 3), including the natural product glidobactin A (2), were synthesized by largely the same route (FIG. 2).^13 Desoxycepafungin (38) was synthesized from Boc-Lys(Boc)-OH to assess the role of the macrocycle hydroxylation in 1 towards proteasome inhibition. The saturated cepafungin analog 39 was designed to address the possible role of rigidity in the tail fragment induced by the diene seen in many natural cepafungins and glidobactins. An analog bearing unsaturation at its macrocyclic lysine was envisioned to provide a head-to-head comparison between the cepafungin and syringolin A (4) macrocyclic core. […] Proteasome subunit β5 IC50 values were determined in situ in RPMI 8226 cells (FIG. 3). In close agreement with prior measurement of β5 IC50 for natural 1 and 2 in purified yeast proteasome,^8 in our hands the additional branching methyl in 1 indeed leads to ca. 5-fold improved IC50 compared to 2 in RPMI 8226 cells. […] Likewise, saturation of the fatty acid fragment in 39 causes ca. 14-fold decrease in β5 inhibition. This preliminary series of analogs highlighted that the macrocyclic hydroxylation, fatty acid unsaturation, and terminal lipid functionality are critical for potent proteasome inhibitory activity.
(§3) Cellular assays were performed with human multiple myeloma cell line RPMI 8226. First, relative inhibition of proteasome subunits β5 and β2 for all analogs and the natural product was measured at 30 nM compound concentration. Following incubation of the analogs in cell culture for 6 hours, cells were lysed and fluorogenic subunit-specific peptide substrates Suc-LLVY-AMC (β5) or Ac-RLR-AMC (β2) were incubated with the lysates, and fluorescence readings provided relative proteasome activity levels with respect to DMSO (FIG. 6A). Next, cytotoxicity screening was performed at 30 nM and 100 nM concentrations for better coverage of dynamic range (FIG. 6B). […] Therefore, the improved cytotoxicity of phenyl cepafungin 50 likely results from a more pronounced loss of β5 function in RPMI 8226 cells. This drastic increase in proteasome inhibition may be due to pi-stacking of the lipid tail phenyl ring with the β6 subunit residues Tyr106 and/or Tyr5. The β2 subunit-bound natural product has residues Tyr102 and Phe103 on the adjacent β3 subunit oriented further away from the terminal lipid methyl groups, and presumably would not facilitate pi-stacking to the extent possible at the adjacent β6 subunit (see FIG. 4, FIG. 9). […]
(§4) RPMI 8226 cells were seeded in a 6-well plate (1,000,000 cells/well) in cell culture media supplemented with indicated compounds (1,000× stock in DMSO) or DMSO and cultured for 6 hours. […] The plates were incubated at 37° C. for one hour and fluorescence was read at A360ex/A460em. […]

20S proteasome = biological target: T2, 20S proteasome (Homo sapiens, UniProt P28074+Q99436); test: In-gel competitive profiling and in situ competitive LC-MS/MS based chemoproteomics; format: cell-based; settings: human MM cells, alkyne-tagged probe analog
T2 construct: endogenous in cells
T2 sequence (P28074 60-263): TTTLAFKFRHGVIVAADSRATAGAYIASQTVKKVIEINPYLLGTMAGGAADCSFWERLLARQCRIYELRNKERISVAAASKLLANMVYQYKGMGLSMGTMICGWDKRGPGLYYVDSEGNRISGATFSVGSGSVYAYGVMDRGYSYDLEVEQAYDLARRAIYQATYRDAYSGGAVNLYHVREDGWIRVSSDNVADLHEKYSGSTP
T2 sequence (Q99436 44-277): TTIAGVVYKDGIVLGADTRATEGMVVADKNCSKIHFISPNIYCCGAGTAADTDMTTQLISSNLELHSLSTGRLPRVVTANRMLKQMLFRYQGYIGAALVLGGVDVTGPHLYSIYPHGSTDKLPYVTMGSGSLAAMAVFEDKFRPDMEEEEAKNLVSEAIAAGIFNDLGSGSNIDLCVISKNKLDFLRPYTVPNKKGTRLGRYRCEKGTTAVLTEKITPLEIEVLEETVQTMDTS
Source text: Prior to our work, a major knowledge gap in the bioactivity of cepafungin was its engagement of the proteasome in human MM cells and selectivity in targeting the proteasome over a multitude of other proteases. To address this, an alkyne-tagged probe analog was synthesized by our chemoenzymatic route and used for classical chemoproteomics studies.

[3] = biological target: β5 subunit of purified yeast proteasome (Saccharomyces cerevisiae, UniProt P23724+P30656); settings: literature ref. 8; cited from earlier work
β2 and β5 subunits = settings: introduction, no test specified; cited from earlier work
proteasome subunit β2 = test: Proteasome inhibition IC50 measurements in RPMI 8226 cells, substrate Ac-RLR-AMC (β2); format: cell-based, human; settings: 6 hours
Description: as §3, with “Tyr5.” for “Tyr5. The β2 subunit-bound natural product has residues Tyr102 and Phe103 on the adjacent β3 subunit oriented further away from the terminal lipid methyl groups, and presumably would not facilitate pi-stacking to the extent possible at the adjacent β6 subunit (see FIG. 4, FIG. 9).”
as §4

RPMI 8226 cells [4] = test: RPMI 8226 cytotoxicity EC50 measurements (WST-1); format: cell-based, human
Description: RPMI 8226 cells were seeded in a 96-well plate (20,000 cells/well) in cell culture media supplemented with indicated compounds (1,000× stock in DMSO) or DMSO and cultured for 48 hours. Toxicity was determined using the WST-1 assay (Roche) according to the protocol of the manufacturer. (n=3)
Cytotoxicity of phenyl cepafungin (50) and hybrid analog (S39) in RPMI 8226 RPMI 8226 cells were seeded in a 96-well plate (20,000 cells/well) in cell culture media supplemented with indicated compounds (1,000× stock in DMSO) or DMSO and cultured for 48 hours. Toxicity was determined using the WST-1 assay (Roche) according to the protocol of the manufacturer. (n=3)

RPMI 8226 cells [5] = test: RPMI8226 cytotoxicity screening (WST-1); format: cell-based, human; settings: 30 nM and 100 nM, cytotoxicities track with proteasome inhibition at 30 nM
Description: Cellular assays were performed with human multiple myeloma cell line RPMI 8226. First, relative inhibition of proteasome subunits β5 and β2 for all analogs and the natural product was measured at 30 nM compound concentration. Following incubation of the analogs in cell culture for 6 hours, cells were lysed and fluorogenic subunit-specific peptide substrates Suc-LLVY-AMC (β5) or Ac-RLR-AMC (β2) were incubated with the lysates, and fluorescence readings provided relative proteasome activity levels with respect to DMSO (FIG. 6A). Next, cytotoxicity screening was performed at 30 nM and 100 nM concentrations for better coverage of dynamic range (FIG. 6B). […] Therefore, the improved cytotoxicity of phenyl cepafungin 50 likely results from a more pronounced loss of β5 function in RPMI 8226 cells. This drastic increase in proteasome inhibition may be due to pi-stacking of the lipid tail phenyl ring with the β6 subunit residues Tyr106 and/or Tyr5. The β2 subunit-bound natural product has residues Tyr102 and Phe103 on the adjacent β3 subunit oriented further away from the terminal lipid methyl groups, and presumably would not facilitate pi-stacking to the extent possible at the adjacent β6 subunit (see FIG. 4, FIG. 9). […] These combined modifications were made in hopes that the effects of both substitutions would be additive.
[…] Toxicity was determined using the WST-1 assay (Roche) according to the protocol of the manufacturer. (n=3)

U266 = test: MM and MCL cytotoxicity EC50 measurements, U266; format: cell-based; settings: Homo sapiens, U-266; U266, 48 hours, WST-1
Description: as §1, §2

Compound	cytotoxicity compared with bortezomib, in words [1]	overlap in upregulated protein expression between 1 and bortezomib [2]	fold improved β5 IC50 of 1 compared to 2 (proteasome subunit β5; in situ in RPMI 8226 cells)	fold improved β5 inhibition of 1 compared to desoxy-cepafungin analog 38 (proteasome subunit β5; in situ in RPMI 8226 cells)	selectivity of proteasome engagement, in words (20S proteasome)	selectivity of proteasome engagement, in words (20S proteasome; listed as cepafungin)	fold improvement of β5-subunit inhibition compared to glidobactin A (2) [3]	proteasome inhibitory activity, in words (β2 and β5 subunits)	fold lower β5 IC50 than 1 / fold greater β5 inhibitory activity (proteasome subunit β5; RPMI 8226 cells, 6 hours) [fold]	β2 subunit IC50 compared with 1, in words (proteasome subunit β2)	EC50 (RPMI 8226 cells [4]; Homo sapiens, RPMI 8226, 48 hours, WST-1) [nM]	fold greater cytotoxicity than parent cepafungin I 1 (RPMI 8226 cells [4]; RPMI 8226, EC50 comparison)	potency compared with parent natural product 1 in screening (FIG. 6A, 6B) (RPMI 8226 cells [5])	EC50 (U266) [nM]
CC(C)C[C@H](NC(=O)[C@H](Cc1ccccc1)NC(=O)c1cnccn1)B(O)O [bortezomib, reference compound]	low-nanomolar cytotoxicity	high degree of overlap in upregulated protein expression												
CC(C)CCCCC/C=C/C=C\C(=O)N[C@H](C(=O)N[C@H]1C[C@H](O)CCNC(=O)/C=C\[C@H](C)NC1=O)[C@@H](C)O [compound 1, cepafungin I]		high degree of overlap in upregulated protein expression	ca. 5 fold	ca. 11 fold	exceptional selectivity	exceptional selectivity towards several proteasome subunits	ca. 5 fold	most potent proteasome inhibitor among the syrbactins; also recorded: low nanomolar inhibitory activity						
C[C@H]1/C=C/C(=O)NCC[C@H](O)C[C@H](NC(=O)[C@@H](NC(=O)/C=C/C=C/CCCCCc2ccccc2)[C@@H](C)O)C(=O)N1 [compound 50, (2E,4E)-N-((2S,3R)-3-hydroxy-1-(((5S,8S,10S,E)-10-hydroxy-5-methyl-2,7-dioxo-1,6-diazacyclododec-3-en-8-yl)amino)-1-oxobutan-2-yl)-10-phenyldeca-2,4-dienamide]	similarly low-nanomolar cytotoxicity in all cell lines as bortezomib except for U266								7	roughly similar IC50	3	4-5 fold	more potent than the parent natural product 1; also recorded: most potent	~20
